Experiments:
[1] = Powder X-ray diffraction of commercial batches after accelerated storage; format: physicochemical; details: 3 commercial batches, 6 months of accelerated storage conditions (40° C.)
Protocol: In this example, powder X-ray diffraction spectra of crystalline epirubicin hydrochloride of type I and type II were obtained. Powder X-ray diffraction spectra were measured using a Rigaku Cu Anode X-ray Diffractometer (MiniFlex). The conditions for analysis of the samples was as follows:
FIGS. 16, 18 and 20 illustrate the X-Ray Diffraction spectra of the mentioned above 3 commercial batches, undergone 6 months of Accelerated storage conditions (40° C.).

[2] = Thermal stability study under accelerated storage conditions (HPLC assay, doxorubicinone quantity, total impurities); format: physicochemical
Protocol: The type II crystalline epirubicin hydrochloride obtained in Example 1 and type I crystalline epirubicin hydrochloride obtained in reference Example 3 were each kept at a temperature 40° C. for six months, thereby simulating accelerated storage conditions. The thermal stability was investigated and measured by studying the following parameters: (1) assay (HPLC method), (2) doxorubicinone quantity (doxorubicinone, an aglycone of epirubicin, is the major epirubicin degradation product), and (3) total impurities.

- thermal stability by X-Ray Diffraction spectra [1]: thermally stable
SMILES: COc1cccc2c1C(=O)c1c(O)c3c(c(O)c1C2=O)C[C@@](O)(C(=O)CO)C[C@@H]3OC1CC(N)C(O)C(C)O1.Cl (stereo partly drawn) [epirubicin hydrochloride]
- shelf life ([2]; concluded from the 40° C. storage study, compared with type I): longer than the shelf life of type I crystalline epirubicin hydrochloride
- thermal stability ([2]; kept at 40° C. for six months, compared with type I crystalline epirubicin hydrochloride): much greater thermal stability than type I crystalline epirubicin hydrochloride

Source: patent US20090099346A1 (priority 2003, published 2009)
